Measurements published in patent US11965159B2, “Compositions and methods for regulating proteins and nucleic acids activities” (THE BROAD INSTITUTE, INC., priority 2019, dated 2024).

How the values were obtained:
[1] = molecular target: T1, dCas9-cytidine deaminase conjugate (BE3) (UniProt P14739+P38483+Q99ZW2, D10A); assay: BE3 base-editing of EMX1 gene in HEK293T cells; format: cell-based; details: 1.25-20 μM, 72 h; BE3:gRNA ribonucleoprotein delivery
T1 construct: His6 (N); made in house; host or cells: E. coli BL21 Star (DE3); purified protein lipofected as BE3:gRNA RNP into HEK293T cells
Experimental: Protein transfection of base editor BE3 into HEK293T cells. HEK293T cells were seeded on 48-well BioCoat® poly-D-lysine plates (Corning®) in 250 μL of antibiotic-free medium and transfected at ˜70% confluency. Prior to protein transfection, cells were incubated with 2 μL of DMSO-suspended BRD7087 or BRD5779 at the indicated concentration for 2-3 hours. BE3 protein was incubated with 1.1× molar excess of EMX1-targeting sgRNA at a final concentration ratio of 200 nM: 220 nM (based on a total well volume of 275 μL). The complex was mixed with 0.2 μL of compound for five minutes, incubated with 1.5 μL Lipofectamine™ 2000 (THERMOFISHER) and transfected according to the manufacturer's protocol plasmid delivery. […]
Purifications and sequencing of genomic DNA. […] Barcoded samples were pooled and purified by gel extraction (QIAGEN) before quantification using the Qubit™ dsDNA HS Kit (THERMOFISHER) and qPCR (KAPA BioSystems) according to the manufacturer's instructions. Sequencing of pooled samples was performed using a single-end read from 260 to 300 bases on the MiSeq™ ([…]) according to the manufacturer's instructions.
Analysis of base-edited sequences. Nucleotide frequencies were analyzed using a previously described MATLAB script 5. Briefly, the reads were aligned to the reference sequence via the Smith-Waterman algorithm. […]

SpCas9 = SpCas9 (Streptococcus pyogenes serotype M1, UniProt Q99ZW2); assay: mKate2 expression (knockdown/disruption) assay; format: cell-based; details: read-out: inhibition activity in mKate2 disruption assay
Experimental: Where σ1 and σ2 are the standard deviations of DN66 transfected wells and (DN66+DN78) transfected wells respectively. μ1 and μ2 are the mean % GFP− cell population for DN66 transfected wells and (DN66+DN78) transfected wells respectively. mKate2 expression assay. Approximately 8,000 cells/well were plated in a 96-well format 24 h before transiently transfected with 100 ng of either CgRNA (Addgene Plasmid #64955) or T1 gRNA (Addgene Plasmid #62717) plasmids using Lipofectamine™ 2000 (Life Technologies™). Transfected cells were allowed to grow in the indicated amount of compound or DMSO for 24 h. Cells were then fixed using 4% paraformaldehyde and imaged with the HCS NuclearMask™ Blue Stain (Life Technologies™) as the nuclear counter-staining agent. […] Images were analyzed in the MetaXpress® software to determine the % mKate2 positive cells and the % NHEJ was calculated following a reported protocol and plotted using GraphPad Prism 6. The Z′-value was calculated following the formula:
mKate2 expression assay. […] Images were analyzed in the MetaXpress® software to determine the % mKate2 positive cells and the % NHEJ was calculated following a reported protocol and plotted using GraphPad Prism 6. The Z′-value was calculated following the formula: […]

Chain of SpCas9 (Q99ZW2 whole entry): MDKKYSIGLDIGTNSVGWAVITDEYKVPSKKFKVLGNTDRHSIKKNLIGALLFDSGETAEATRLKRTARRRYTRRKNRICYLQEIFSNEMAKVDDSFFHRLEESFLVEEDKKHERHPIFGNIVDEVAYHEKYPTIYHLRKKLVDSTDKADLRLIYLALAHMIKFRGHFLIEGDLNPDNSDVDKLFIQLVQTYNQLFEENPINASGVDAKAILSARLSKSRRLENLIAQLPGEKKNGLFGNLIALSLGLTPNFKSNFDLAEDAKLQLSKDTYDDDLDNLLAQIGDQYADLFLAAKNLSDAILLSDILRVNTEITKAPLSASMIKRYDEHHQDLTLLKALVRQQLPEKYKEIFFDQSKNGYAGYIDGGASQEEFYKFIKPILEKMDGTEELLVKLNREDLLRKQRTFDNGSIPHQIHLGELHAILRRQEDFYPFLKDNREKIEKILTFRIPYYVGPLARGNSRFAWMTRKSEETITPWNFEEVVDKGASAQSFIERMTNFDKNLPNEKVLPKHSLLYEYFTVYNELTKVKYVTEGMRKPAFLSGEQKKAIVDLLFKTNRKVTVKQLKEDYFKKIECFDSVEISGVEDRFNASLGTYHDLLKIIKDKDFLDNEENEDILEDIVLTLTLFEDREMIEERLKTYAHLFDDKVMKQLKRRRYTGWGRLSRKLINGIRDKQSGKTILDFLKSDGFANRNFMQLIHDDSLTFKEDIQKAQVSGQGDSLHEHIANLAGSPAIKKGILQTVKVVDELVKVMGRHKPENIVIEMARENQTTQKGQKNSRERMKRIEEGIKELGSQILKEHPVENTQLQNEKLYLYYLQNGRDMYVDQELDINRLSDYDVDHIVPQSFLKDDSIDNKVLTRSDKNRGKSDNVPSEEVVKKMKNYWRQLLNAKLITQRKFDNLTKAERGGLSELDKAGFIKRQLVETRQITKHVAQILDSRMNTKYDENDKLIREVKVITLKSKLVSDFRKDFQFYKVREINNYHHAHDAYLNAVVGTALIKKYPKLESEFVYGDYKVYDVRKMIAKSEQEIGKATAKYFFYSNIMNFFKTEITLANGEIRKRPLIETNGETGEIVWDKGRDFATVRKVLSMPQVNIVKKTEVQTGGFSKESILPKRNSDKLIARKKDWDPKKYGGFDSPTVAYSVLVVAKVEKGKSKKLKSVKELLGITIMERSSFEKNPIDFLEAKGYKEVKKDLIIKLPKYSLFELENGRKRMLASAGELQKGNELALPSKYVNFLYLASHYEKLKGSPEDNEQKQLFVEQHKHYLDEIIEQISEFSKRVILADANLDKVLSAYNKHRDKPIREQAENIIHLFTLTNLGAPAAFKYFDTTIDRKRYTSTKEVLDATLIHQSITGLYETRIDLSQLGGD

Structure (SMILES)	inhibition of BE3-mediated base-editing (C→T conversion, EMX1) [1]	inhibition at 5 µM (SpCas9)
OC[C@H]1Nc2ccc(-c3cccc(F)c3)cc2[C@H]2[C@@H]1CCN2Cc1ccncc1 [BRD7087, ((3aR,4S,9bR)-8-(3-Fluorophenyl)-1-(pyridin-4-ylmethyl)-2,3,3a,4,5,9b-hexahydro-1H-pyrrolo[3,2-c]quinolin-4-yl)methanol]	efficient and dose-dependent inhibition	50%
COc1ccc(-c2ccc3c(c2)[C@H]2[C@H](CCN2Cc2ccncc2)[C@@H](CO)N3)cc1 [BRD5779, ((3aR,4S,9bR)-8-(4-Methoxyphenyl)-1-(pyridin-4-ylmethyl)-2,3,3a,4,5,9b-hexahydro-1H-pyrrolo[3,2-c]quinolin-4-yl)methanol]	efficient and dose-dependent inhibition	–
